Assay results as given in publication PMC6427912 (Journal of medicinal chemistry, 2019).
≈ marks a conversion by molar mass, not a printed value. Where “and” joins values, the source holds several entries; their conditions need not be identical. Identical values can stand only once. Like-named read-outs stand apart in the source and are kept apart here.

Experiments:
B. subtilis [1] = settings: cited from earlier work
HEK293 cells = experiment: HEK293 cell growth inhibition assay; format: cell-based, human; settings: for HEK293 toxicity (ED50): 96 hours incubation
P. aeruginosa FPPS = settings: read-out: activity against P. aeruginosa FPPS; cited from earlier work
B. subtilis [2] = experiment: B. subtilis serum binding assay; format: cell-based, Bacillus subtilis
[3] = target: SaHepPPS (S. aureus heptaprenyl diphosphate synthase) (Staphylococcus aureus, UniProt Q2FYG6); experiment: HepPPS enzyme inhibition assay; format: biochemical; settings: IC50 against SaHepPPS
E. faecium = settings: cited from earlier work
E. faecalis = settings: cited from earlier work
S. aureus = S. aureus growth inhibition assay; format: cell-based, Staphylococcus aureus; settings: for Sa ED50: S. aureus growth inhibition
B. subtilis [4] = experiment: B. subtilis growth inhibition assay; format: cell-based, Bacillus subtilis; settings: value in parentheses
EcUPPS = EcUPPS (Escherichia coli, UniProt P60472); experiment: UPPS enzyme inhibition assay; format: biochemical, E. coli
Chain of EcUPPS (P60472 whole entry): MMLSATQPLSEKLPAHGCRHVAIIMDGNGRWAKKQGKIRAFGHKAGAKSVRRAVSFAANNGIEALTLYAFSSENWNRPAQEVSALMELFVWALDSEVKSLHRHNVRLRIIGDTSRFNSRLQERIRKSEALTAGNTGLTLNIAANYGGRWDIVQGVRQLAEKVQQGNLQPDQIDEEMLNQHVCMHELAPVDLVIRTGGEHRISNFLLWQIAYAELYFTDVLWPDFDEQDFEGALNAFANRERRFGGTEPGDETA

Mycobacterium smegmatis = experiment: M. smegmatis growth inhibition assay; format: cell-based
[5] = target: T1, HsFPPS (human farnesyl diphosphate synthase) (Homo sapiens, UniProt P14324); experiment: FPPS enzyme inhibition assay; format: biochemical
T1 sequence (P14324 1-419): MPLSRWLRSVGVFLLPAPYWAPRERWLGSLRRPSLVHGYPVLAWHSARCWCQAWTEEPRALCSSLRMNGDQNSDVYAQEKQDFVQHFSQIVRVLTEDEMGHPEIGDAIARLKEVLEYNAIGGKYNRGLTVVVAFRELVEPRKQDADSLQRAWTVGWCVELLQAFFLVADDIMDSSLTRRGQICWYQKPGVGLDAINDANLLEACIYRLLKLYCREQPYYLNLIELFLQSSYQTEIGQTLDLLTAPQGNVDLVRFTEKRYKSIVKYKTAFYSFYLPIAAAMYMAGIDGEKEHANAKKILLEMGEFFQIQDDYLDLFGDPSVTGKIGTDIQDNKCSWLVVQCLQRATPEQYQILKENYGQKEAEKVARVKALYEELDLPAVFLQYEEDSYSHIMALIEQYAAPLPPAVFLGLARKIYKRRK

B. subtilis [6] = experiment: B. subtilis cell growth inhibition rescue assays; format: cell-based, Bacillus subtilis
B. anthracis Sterne = format: cell-based, Bacillus anthracis; settings: B. anthracis Sterne growth inhibition

## O=P([O-])(O)C(Cn1cc[n+](CCCc2ccc(F)c(F)c2)c1)P(=O)(O)O (centres unmarked) [Compound 72, reference compound]
B. subtilis [1]
  activity against B. subtilis: > 100 µg/mL
HEK293 cells
  HEK293 toxicity (ED50): 13 µM
P. aeruginosa FPPS
  IC50: 100 to 200 nM
B. subtilis [2]; B. subtilis, 10% serum
  increase in ED50 with 10% serum: 50%

## CCCCCCCCCCCCCCOc1cccc(O)c1C(=O)O [Compound 70]
[3]
  IC50: 1000 to 2000 nM
E. faecium
  MIC E. faecium cell growth: 4 µg/mL (≈ 11.4 µM)
E. faecalis
  MIC E. faecalis cell growth: 4 µg/mL (≈ 11.4 µM)
S. aureus; Staphylococcus aureus, read-out: IC50 for S. aureus cell growth inhibition
  IC50: 19 µM

## CC(C)CCCC(C)CCOc1ccc[n+](CC(P(=O)([O-])O)P(=O)(O)O)c1 (centres unmarked) [Compound 74, Hydrogen(2-(3-((3,7-dimethyloctyl)oxy)pyridin-1-ium-1-yl)-1-phosphonoethyl) phosphonate]
B. subtilis [4]
  Bs ED50: 2.4 µM
EcUPPS
  inhibition of UPPS: no inhibition
Mycobacterium smegmatis; 48 hours
  Ms ED50: 5.9 µg/mL
Mycobacterium smegmatis; value in parentheses
  Ms ED50: 14 µM
[5]
  IC50: 200 nM and ~200 nM
HEK293 cells
  HEK293 toxicity (ED50): 76 µM and ~ 70 µM
HEK293 cells; HEK293 cell growth inhibition ED50, 24 hr incubation
  HEK 293: 262 µg/mL
HEK293 cells; after 24 hrs
  HEK293 toxicity: ~ 0.5 mM
B. subtilis [6]; 50 µM HMBPP
  increase in ED50 for B. subtilis growth inhibition, rescue by HMBPP: ~ 2 x
B. subtilis [6]; 50 µM MK-4
  increase in ED50 for B. subtilis growth inhibition, rescue by MK-4: ~ 5 x
S. aureus
  Sa ED50: 14 µg/mL
S. aureus; value in parentheses
  Sa ED50: 33 µM
B. anthracis Sterne
  Ba ED50: 2.3 µg/mL
B. anthracis Sterne; value in parentheses
  Ba ED50: 5.4 µM
B. subtilis [2]; 4% or 10% fetal bovine serum
  effect of serum on B. subtilis growth inhibition: little effect
